B1: G RNA (uncapped) (ssRNA)
RNA: GCUUCAAGAU
modifications: no cap; 3' C6 amine

Assays:
[1] = molecular target: eIF4E binding to m^7GTP RNA substrate (Homo sapiens, UniProt P06730); test: cell-based; settings: 6-hour treatment
LgBiT-eIF4E cells = test: CellTiter-Glo cell viability assay; type: cell-based, human; settings: 6-hour treatment, at the concentrations tested
His10-eIF4E = His10-eIF4E (human, UniProt P06730 1-217); test: FP competition
[2] = IC50 in CRISPR RiPCA, read at 24 hours
[3] = IC50 values as 95% confidence intervals, CRISPR RiPCA

Sequence of eIF4E binding to m^7GTP RNA substrate (P06730 whole entry): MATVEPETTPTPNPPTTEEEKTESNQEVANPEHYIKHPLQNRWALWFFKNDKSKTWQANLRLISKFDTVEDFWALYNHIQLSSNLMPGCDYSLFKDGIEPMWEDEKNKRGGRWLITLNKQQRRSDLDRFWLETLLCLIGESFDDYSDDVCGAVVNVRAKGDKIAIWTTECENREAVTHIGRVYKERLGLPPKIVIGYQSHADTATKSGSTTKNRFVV
Sequence of His10-eIF4E (P06730 whole entry): as above

Molecule	IC50 [1, 2] [µM]	IC50 [1, 3] [µM]	cell viability / cell death (LgBiT-eIF4E cells)	binding result (His10-eIF4E)
Cc1cc(-c2cc(Cl)ccc2OCCn2c(C)nc3cc(C(F)(F)F)cc(C#N)c3c2=O)c2scc(C(=O)O)c2n1 [compound 2]	0.124	0.091 to 0.171		
O=C(O)C(Cc1ccccc1[N+](=O)[O-])=NNc1nc(-c2ccc(Cl)c(Cl)c2)cs1 (mixture of isomers) [4EGI-1]			Absence of viability defects	
CO[C@H]1C[C@@H]2CC[C@@H](C)[C@@](O)(O2)C(=O)C(=O)N2CCCC[C@H]2C(=O)O[C@H]([C@H](C)C[C@@H]2CC[C@@H](O)[C@H](OC)C2)CC(=O)[C@H](C)/C=C(\C)[C@@H](O)[C@@H](OC)C(=O)[C@H](C)C[C@H](C)/C=C/C=C/C=C/1C [rapamycin]	4.7	1.9 to 11	Absence of viability defects	
B1				no binding
